Several values for one entry are separate records, joined by “and”; a condition that tells them apart may be missing. Identical values can stand only once.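 Cells were grown in 96-well plates and exposed to each compound for 48 hours at five concentrations; endpoints were interpolated linearly between bracketing concentrations, or set to the highest concentration if not reached. GI50 = concentration required for 50% inhibition of growth. The concentration for full growth arrest is given as TGI.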
Key:
Assay in all cases: NCI tumour cell line growth inhibition, 48 h
[1] = tested on: 786-0 renal
[2] = tested on: ACHN renal
[3] = tested on: MCF7 breast
[4] = tested on: MDA-MB-231 breast
[5] = tested on: MDA-MB-435
[6] = tested on: OVCAR-4 ovarian
[7] = tested on: RPMI-8226 leukemia
[8] = tested on: SK-MEL-2 melanoma
[9] = tested on: SK-MEL-28 melanoma
[10] = tested on: T-47D breast

| Compound | GI50 [1] | TGI [1] | GI50 [2] | TGI [2] | GI50 [3] [µM] | TGI [3] [µM] | GI50 [4] | TGI [4] | GI50 [5] | TGI [5] | GI50 [6] | TGI [6] | GI50 [7] | TGI [7] | GI50 [8] | TGI [8] | GI50 [9] | TGI [9] | GI50 [10] | TGI [10] |
| --- | --- | --- | --- | --- | --- | --- | --- | --- | --- | --- | --- | --- | --- | --- | --- | --- | --- | --- | --- | --- |
| O=S(=O)(NCCNc1cc(-c2cn(-c3ccccc3)nc2-c2cccc(O)c2)ccn1)c1ccc(F)cc1 | 2.49 µM | 14.3 µM | 2.32 µM | 7.34 µM | 2.19 | 6.66 | 1.88 µM | 4.7 µM | 2.3 µM | 7.2 µM | 3.05 µM | > 100 µM | 2.23 µM | 6.12 µM | 1.92 µM | 4.32 µM | 2.03 µM | 5.39 µM | 2.01 µM | 6.86 µM |
| Nc1ccn(C2OC(COP(=O)(O)O)C(O)C2O)c(=O)n1 (centres undefined) | – | > 100 µM | – | > 41.4 µM | – | > 100 | – | > 100 µM | – | > 100 µM | – | > 100 µM | – | > 100 µM | – | > 100 µM | – | > 100 µM | – | > 100 µM |
| Fc1ccc(Nc2ccc3cc(OCCCN4CCOCC4)ccc3n2)cc1F | 2.15 µM | 4.68 µM | 4.2 µM | 30.7 µM | 3.11 | 27 | 1.96 µM | 4.68 µM | 3.26 µM | 68 µM | 4.14 µM | > 100 µM | 6.96 µM | > 100 µM | 4.84 µM | 33.5 µM | 1.87 µM | 3.93 µM | 6.68 µM | > 100 µM |
| O=C(/C=C/C12c3ccccc3C(c3ccccc31)C1C(=O)NC(=O)C12)c1ccco1 (centres undefined) | 3.28 µM | 10.8 µM | 3.63 µM | 12.3 µM | 2.49 | 12.6 | 3.85 µM | 15.4 µM | 2.35 µM | 5.84 µM | 3.45 µM | 13.5 µM | 1.1 µM | 4.21 µM | 2.19 µM | 4.44 µM | 2.37 µM | 4.73 µM | 3.43 µM | 20.3 µM |
| c1cncc(-c2cc(-c3cc(-c4cccnc4)n[nH]3)[nH]n2)c1 | – | > 100 µM | – | > 100 µM | – | > 100 | – | > 100 µM | – | > 100 µM | – | > 100 µM | – | > 100 µM | – | > 100 µM | – | > 100 µM | – | > 100 µM |
| O=C(CSc1nc2sc3c(c2c(=O)n1-c1ccccc1)CCCCC3)N/N=C/c1ccc(F)cc1 | 5.49 µM | 18.8 µM | 4.76 µM | 34.6 µM | 2.91 | 21 | 1.04 µM | 3.27 µM | 10.3 µM | > 100 µM | 0.671 µM | 2.46 µM | 29.5 µM | > 100 µM | 14.4 µM | 28.8 µM | 3.24 µM | 13.1 µM | 2.34 µM | 24.6 µM |
| Cc1cc2c(cc1C)[n+](=O)c(C(=O)c1cccs1)c(C(F)(F)F)n2[O-] | 23 µM and 6.76 µM | 50 µM and 24.5 µM | 7.17 µM and 2.75 µM | 14.9 µM and 17.4 µM | 2.31 | 12.6 | 1.1 µM and 1.67 µM | 8.54 µM and 8 µM | 4.45 µM and 4.89 µM | 16 µM and 21.4 µM | 6.44 µM and 3.56 µM | 50 µM and 10.7 µM | 1.04 µM and 2.84 µM | 8.01 µM and 30.6 µM | 15.8 µM and 8.02 µM | 50 µM and 26.3 µM | 8.83 µM and 12.3 µM | 28.9 µM and 46.2 µM | 7.74 µM and 4.47 µM | 50 µM and 29.8 µM |
| Cc1cc(Nc2ncc(Cl)c(Nc3ccccc3S(=O)(=O)C(C)C)n2)c(OC(C)C)cc1C1CCNCC1 | 1.56 µM | 3.01 µM | 1.59 µM and 1.33 µM | 2.94 µM and 2.61 µM | 0.552 | 2.04 | 1.37 µM | 2.71 µM | 0.944 µM | 2.16 µM | 2.14 µM and 1.15 µM | 7.61 µM and 2.46 µM | 0.753 µM | 2.85 µM | 1.47 µM | 3.06 µM | 1.22 µM | 2.47 µM | 1.47 µM and 1.57 µM | 3.27 µM and 3.17 µM |
| CC(=O)NC(Cc1c[nH]c2ccccc12)C(=O)O (centres undefined) | – | > 100 µM | – | > 100 µM | – | > 100 | – | > 100 µM | – | > 100 µM | – | > 100 µM | – | > 100 µM | – | > 100 µM | – | > 100 µM | – | > 100 µM |
| Cc1cc(S(=O)(=O)/N=C(\N)n2nc(C)c(C)c2C)c(SCc2ccccc2)cc1Cl | > 100 µM | > 100 µM | > 100 µM | > 100 µM | 5.12 | > 100 | > 100 µM | > 100 µM | 3.23 µM | > 100 µM | 19.7 µM | > 100 µM | 2.9 µM | > 100 µM | > 100 µM | > 100 µM | > 100 µM | > 100 µM | 3.14 µM | > 100 µM |
| COc1cc2c3c(n(CCCn4ccnc4)c(=O)c2cc1OC)-c1ccccc1C3=O | < 0.01 µM | 0.194 µM | < 0.0127 µM | 0.0486 µM | < 0.02 | > 43.4 | 0.254 µM | 5.19 µM | 0.0417 µM | 0.779 µM | 0.468 µM | 22.4 µM | < 0.0171 µM | 0.355 µM | 0.927 µM | 17.3 µM | 1.59 µM | > 100 µM | 0.0357 µM | 0.509 µM |
| N#C/C(=C\c1ccc(Cl)cc1)n1nnc2cc(F)c(F)cc21 | 1.69 µM | 3.28 µM | 1.64 µM | 3.02 µM | 1.53 | 4.49 | 1.85 µM | 4.47 µM | 1.76 µM | 4.42 µM | 1.59 µM | 3.48 µM | 1.39 µM | 5.29 µM | 2.03 µM | 4.83 µM | 2.04 µM | 4.38 µM | 1.31 µM | 4.72 µM |
| CCC[CH2][Sn]([CH2]CCC)([O]C(=O)c1cccc(F)c1F)[O][Sn]([CH2]CCC)([CH2]CCC)[O]C(=O)c1cccc(F)c1F | 0.154 µM | 0.344 µM | 0.214 µM | 0.512 µM | 0.0463 | 0.2 | 0.218 µM | 1.19 µM | 0.13 µM | 1.09 µM | 0.459 µM | 1.28 µM | 0.0288 µM | – | 0.166 µM | 0.447 µM | 0.154 µM | 0.369 µM | 0.0189 µM | 0.186 µM |
| C[C@]12CC[C@H]3[C@@H](CC=C4C[C@@H](O)CC[C@@]43C)[C@@H]1C/C(=C\c1cccc(OCCCn3ccnc3)c1)[C@@H]2O | 10.5 µM | 35 µM | 13.9 µM | 31.3 µM | 14.5 | 34.2 | 13.2 µM | 32 µM | 9.99 µM | 42.6 µM | 12.8 µM | 32.7 µM | 5.32 µM | 25 µM | 17.4 µM | 33.6 µM | 12.2 µM | 29.1 µM | 6.4 µM | 30.1 µM |
| CCSc1nc(=S)[nH]c2[nH]ncc12 | > 100 µM | > 100 µM | 93.6 µM | > 100 µM | 66.8 | > 100 | > 100 µM | > 100 µM | 63.1 µM | > 100 µM | > 100 µM | > 100 µM | > 100 µM | > 100 µM | > 100 µM | > 100 µM | > 100 µM | > 100 µM | 86.1 µM | > 100 µM |
| O=C(Nc1cccc(-c2nc3ccccc3[nH]2)c1)c1cccc(NC(=O)c2ccco2)c1 | 1.65 µM | 3.05 µM | 1.68 µM | 3.17 µM | 1.52 | 3.02 | 1.98 µM | 4.85 µM | 1.67 µM | 3.04 µM | 1.73 µM | 3.1 µM | 2.33 µM | 8.16 µM | 5.33 µM | 16.9 µM | 1.75 µM | 3.31 µM | 1.75 µM | 3.79 µM |
| Cn1c(Cc2ccccc2)nc2cc3ccccc3cc21 | 26 µM | 65.1 µM | 31.7 µM | > 100 µM | 38 | > 100 | 16 µM | 37.5 µM | 25.2 µM | 80 µM | 70.4 µM | > 100 µM | 13.1 µM | 34.3 µM | 40.7 µM | > 100 µM | 37.9 µM | > 100 µM | 44.9 µM | > 100 µM |
| C[C@]12CC[C@@H]3c4ccc(OCC(=O)O)cc4CC[C@H]3[C@@H]1CCC2=O | – | > 100 µM | – | > 100 µM | – | > 100 | – | > 100 µM | – | > 100 µM | – | > 100 µM | – | > 100 µM | – | > 100 µM | – | > 100 µM | – | > 100 µM |
| O=C1C=CC(=O)N1c1ccc2c(c1)Cc1cc(NC(=O)C(F)(F)F)ccc1-2 | – | 13 µM | – | 16.4 µM | – | 34.4 | – | 32.3 µM | – | 31.5 µM | – | 31.2 µM | – | 14.3 µM | – | 34.2 µM | – | 34.4 µM | – | 53.2 µM |
| C[C@@H](Oc1cc(-c2cnn(C3CC4(CCNCC4)C3)c2)cnc1N)c1c(F)ccc(Cl)c1Cl | 1.63 µM | 3.17 µM | 2 µM | 7.54 µM | 0.383 | 1.88 | 1.26 µM | 3 µM | 1.06 µM | 2.39 µM | 1.79 µM | 6.53 µM | 1.63 µM | 4.95 µM | 1.93 µM | 3.74 µM | 1.55 µM | 3.2 µM | 1.58 µM | 3.24 µM |
| CN(C)c1ccc2[nH]c(O)c(C=Nc3ccc(S(N)(=O)=O)cc3)c2c1 | > 25 µM | > 25 µM | > 25 µM | > 25 µM | 19 | > 25 | > 25 µM | > 25 µM | > 25 µM | > 25 µM | > 25 µM | > 25 µM | > 25 µM | > 25 µM | > 25 µM | > 25 µM | > 25 µM | > 25 µM | > 25 µM | > 25 µM |
| CCC(=O)Nc1ccc2c(c1)CN1C(=O)c3ccccc3C1=N2 | > 100 µM | > 100 µM | > 100 µM | > 100 µM | > 100 | > 100 | > 100 µM | > 100 µM | > 100 µM | > 100 µM | > 100 µM | > 100 µM | > 100 µM | > 100 µM | > 100 µM | > 100 µM | > 100 µM | > 100 µM | > 100 µM | > 100 µM |
| COc1cc(N)ccc1Nc1c2ccccc2nc2ccccc12 | 12.7 µM | 27.2 µM | 3.36 µM | 14.3 µM | 2.27 | 13.5 | 13.1 µM | 28.6 µM | 17 µM | 33.2 µM | 10.6 µM | > 45.6 µM | 5.27 µM | > 29.9 µM | 23.3 µM | 44.9 µM | 16.3 µM | 34.9 µM | 15.5 µM | 47.8 µM |

From PubChem BioAssay (NCI)
